Laboratory results from paper PMC12406253, “Exploration of the Neuromodulatory Properties of Fyn and GSK-3β Kinases Exploiting 7‑Azaindole-Based Inhibitors” (Journal of Medicinal Chemistry, 2025).
Where a name gives a salt, the structure may show the parent alone.

Biological target: FYNα (Homo sapiens, UniProt P06241)
Assay: FYNα kinase assay, LANCE Ultra TR-FRET
Type: biochemical
Conditions: for inhibition at 50 µM / Fyn % Inhibition @ 50 μM: mean ± SD, n.i. = no inhibition; for inhibition at 50 µM: read-out: Fyn % Inhibition @ 50 μM; for IC50: mean ± SD of at least three independent determinations, ATP near Km, read-out: Fyn IC50
Protocol: GSK-3β and FYNα kinase assays were run in 384-well microplates (OptiPlate-384, White, PerkinElmer) in a total reaction volume of 20 μL. The inhibitory potency against human recombinant GSK-3β and FYNα (Carna Biosciences) was evaluated using the LANCE Ultra (PerkinElmer) time-resolved fluorescence resonance energy transfer (TR-FRET) by measuring the phosphorylation of the ULight-labeled substrate, according to the manufacturer’s instructions. The synthetic peptide surrounding Ser641 of human muscle glycogen synthase (ULight-GS (Ser641/pSer657)) and the synthetic 28-amino acid peptide containing eight Tyr residues placed in different amino acid contexts (ULightTM-TK (PT66)) were selected as specific substrates for GSK-3β and FYNα, respectively. Briefly, test compounds and staurosporine (reference compound) or DMSO (control) are mixed with the enzyme (GSK-3β: 2 nM and FYNα: 1 nM) in a buffer containing 50 mM HEPES (pH 7.5), 1 mM EGTA, 10 mM MgCl2, 2 mM DTT, and 0.01% Tween-20. […] Following incubation, the reaction is stopped by adding 6 mM EDTA. After 5 min, the antiphospho antibody labeled with europium chelate is added. After 1 more hour, the kinase reaction is monitored by irradiation at 320 nm and the fluorescence measured at 615 and 665 nm, using EnVision 2014 Multilabel Reader (PerkinElmer). The calculated signal ratio at 665/615 nm is proportional to the extent of ULight-substrate phosphorylation. The compounds were tested at 11 different concentrations ranging from 3 nM up to 100 μM in triplicate. […] The results were expressed as a percent inhibition of the control enzyme activity.
Dose–response curves were run in at least three independent experiments, performed in three technical replicates. IC50 values (concentrations causing half-maximal enzyme inhibition) were determined by nonlinear regression analysis of the Log[concentration]/response curves generated with mean replicate values using a four parameter Hill equation curve fitting with GraphPad Prism 8 (GraphPad Software Inc., CA-USA).

Chain of FYNα (P06241 whole entry): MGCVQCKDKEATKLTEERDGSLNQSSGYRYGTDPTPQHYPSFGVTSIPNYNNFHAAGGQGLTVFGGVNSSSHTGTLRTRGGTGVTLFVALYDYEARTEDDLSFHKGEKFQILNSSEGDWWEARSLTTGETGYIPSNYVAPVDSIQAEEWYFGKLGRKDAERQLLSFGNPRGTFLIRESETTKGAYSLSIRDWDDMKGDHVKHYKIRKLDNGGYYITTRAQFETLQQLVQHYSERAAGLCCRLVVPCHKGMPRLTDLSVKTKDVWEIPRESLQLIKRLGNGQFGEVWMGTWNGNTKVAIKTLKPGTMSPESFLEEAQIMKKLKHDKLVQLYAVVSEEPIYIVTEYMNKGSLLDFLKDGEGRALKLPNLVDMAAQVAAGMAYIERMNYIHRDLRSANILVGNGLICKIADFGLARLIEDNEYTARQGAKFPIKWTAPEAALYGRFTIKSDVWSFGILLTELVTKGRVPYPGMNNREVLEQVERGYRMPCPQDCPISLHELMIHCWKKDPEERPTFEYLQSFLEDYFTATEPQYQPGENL

`CN(C)c1ccc(Nc2nc(-c3c[nH]c4ncccc34)cs2)cc1` [Compound 15, N ^1-(4-(1H-Pyrrolo[2,3-b]pyridin-3-yl)thiazol-2-yl)-N,^4 N ^4-dimethylbenzene-1,4-diamine Hydrobromide] was tested, and the inhibition at 50 µM was 11.4%.
For `Nc1ccc(Nc2nc(-c3c[nH]c4ncccc34)cs2)cc1` [Compound 16], the inhibition at 50 µM was 42.9%.
Compound `Clc1ccccc1CNc1nc(-c2c[nH]c3ncccc23)cs1` [Compound 18, N-(2-Chlorobenzyl)-4-(1H-pyrrolo[2,3-b]pyridin-3-yl)thiazol-2-amine Hydrobromide] has an IC50 of 5.37 ± 1.29 µM.
With `c1ccc(CNc2nc(-c3c[nH]c4ncccc34)cs2)cc1` [Compound 7, N-Benzyl-4-(1H-pyrrolo[2,3-b]pyridin-3-yl)thiazol-2-amine Hydrobromide] the IC50 was 2.04 ± 0.53 µM.
`COc1ccccc1CNc1nc(-c2c[nH]c3ncccc23)cs1` [Compound 17, N-(2-Methoxybenzyl)-4-(1H-pyrrolo[2,3-b]pyridin-3-yl)thiazol-2-amine Hydrobromide] showed an IC50 of 7.29 ± 1.03 µM.
`Br.Clc1ccc(CNc2nc(-c3c[nH]c4ncccc34)cs2)cc1` [Compound 20, N-(4-Chlorobenzyl)-4-(1H-pyrrolo[2,3-b]pyridin-3-yl)thiazol-2-amine Hydrobromide] was tested, and the “Fyn % Inhibition @ 50 μM” value was “n.i”.
Compound `Brc1cnc2[nH]cc(-c3csc(NCc4ccccc4)n3)c2c1` [Compound 38, N-Benzyl-4-(5-bromo-1H-pyrrolo[2,3-b]pyridin-3-yl)thiazol-2-amine Hydrobromide] has an IC50 of 0.55 ± 0.02 µM.
With `Br.O=C(Nc1nc(-c2c[nH]c3ncccc23)cs1)c1ccccc1` [Compound 32, N-(4-(1H-Pyrrolo[2,3-b]pyridin-3-yl)thiazol-2-yl)benzamide Hydrobromide] the “Fyn % Inhibition @ 50 μM” value was “n.i”.
`Nc1ccc(CNc2nc(-c3c[nH]c4ncccc34)cs2)cc1` [Compound 25] gave an IC50 of 18.5 ± 2.49 µM.
Work on `Clc1cccc(CNc2nc(-c3c[nH]c4ncccc34)cs2)c1` [Compound 19, N-(3-Chlorobenzyl)-4-(1H-pyrrolo[2,3-b]pyridin-3-yl)thiazol-2-amine Hydrobromide] yielded an IC50 of 4.71 ± 0.55 µM.
With `Cc1sc(NCc2ccccc2)nc1-c1c[nH]c2ncccc12` [Compound 39, N-Benzyl-5-methyl-4-(1H-pyrrolo[2,3-b]pyridin-3-yl)thiazol-2-amine Hydrobromide] the IC50 was 0.39 ± 0.11 µM.
For `c1cnc(CNc2nc(-c3c[nH]c4ncccc34)cs2)nc1` [Compound 29, N-(Pyrimidin-2-ylmethyl)-4-(1H-pyrrolo[2,3-b]pyridin-3-yl)thiazol-2-amine Hydrobromide], the IC50 was 15 ± 1.26 µM.
`O=[N+]([O-])c1ccc(CNc2nc(-c3c[nH]c4ncccc34)cs2)cc1` [Compound 24, N-(4-Nitrobenzyl)-4-(1H-pyrrolo[2,3-b]pyridin-3-yl)thiazol-2-amine Hydrobromide] was tested, and the IC50 was 5.21 ± 0.51 µM.
In the case of `c1ccc(Nc2nc(-c3c[nH]c4ncccc34)cs2)cc1` [Compound 6, N-Phenyl-4-(1H-pyrrolo[2,3-b]pyridin-3-yl)thiazol-2-amine], the inhibition at 50 µM is reported as 40%.
`Fc1ccc(CNc2nc(-c3c[nH]c4ncccc34)cs2)cc1` [Compound 21, N-(4-Fluorobenzyl)-4-(1H-pyrrolo[2,3-b]pyridin-3-yl)thiazol-2-amine Hydrobromide] gave an IC50 of 7.1 ± 0.47 µM.
With `Br.Clc1cccc2c(-c3csc(NCc4ccccc4)n3)c[nH]c12` [Compound 37] the “Fyn % Inhibition @ 50 μM” value was “n.i”.
In the case of `c1cnc2[nH]cc(-c3csc(NCc4cnccn4)n3)c2c1` [Compound 30, N-(Pyrazin-2-ylmethyl)-4-(1H-pyrrolo[2,3-b]pyridin-3-yl)thiazol-2-amine Hydrobromide], the IC50 is reported as 7.39 ± 0.37 µM.
